Assay [1] has as its target T1, Histone deacetylase 3/Nuclear receptor corepressor 2 (HDAC3/NCoR2) (Homo sapiens, UniProt O15379). Kind of assay: Inhibition of full length human C-terminal His-tagged HDAC3/N-terminal GST-tagged NCOR2 (395 to 489 residues) co-expressed in baculovirus infected sf9 cells using (FAM)-labeled acetylated peptide substrate after 60 mins by caliper microfluidic mobility shift assay.

Assay [2] concerns the target T1, Histone deacetylase 3/Nuclear receptor corepressor 2 (HDAC3/NCoR2). Kind of assay: biochemical. The assay is classed as cell-based.
Description: Inhibition of His6-tagged HDAC3/SMRT (395 to 489 residues) (unknown origin) co-expressed in baculovirus infected sf9 cells using (FAM)-labeled acetylated peptide substrate after 17 hrs by caliper microfluidic mobility shift assay
The target of a further assay is Histone deacetylase 3 (Homo sapiens, UniProt O15379). The assay is described as follows: Inhibition of HDAC3 (unknown origin).
For assay [3], the species on record is Homo sapiens. The assay is described as follows: Selectivity ratio of IC50 for HDAC1 (unknown origin) to IC50 for HDAC3 (unknown origin).
The species entered for assay [4] is Homo sapiens. Kind of assay: Selectivity ratio of IC50 for HDAC2 (unknown origin) to IC50 for HDAC3 (unknown origin).
For assay [5], the species on record is Homo sapiens. The assay is described as follows: Selectivity ratio of IC50 for HDAC4 (unknown origin) to IC50 for HDAC3 (unknown origin).
For assay [6], the species on record is Homo sapiens. Kind of assay: Selectivity ratio of IC50 for HDAC6 (unknown origin) to IC50 for HDAC3 (unknown origin).
For assay [7], the species on record is Homo sapiens. The assay is described as follows: Selectivity ratio of IC50 for HDAC7 (unknown origin) to IC50 for HDAC3 (unknown origin).
The species entered for assay [8] is Homo sapiens. Kind of assay: Selectivity ratio of IC50 for HDAC8 (unknown origin) to IC50 for HDAC3 (unknown origin).

SMILES strings stand for the structures. pIC50: −log10 of the molar value.

A word on the pIC50: it is the IC50 on a negative log10 scale, so that one unit is a factor of ten.

T1 sequence (O15379 whole entry, the tested form may be a part): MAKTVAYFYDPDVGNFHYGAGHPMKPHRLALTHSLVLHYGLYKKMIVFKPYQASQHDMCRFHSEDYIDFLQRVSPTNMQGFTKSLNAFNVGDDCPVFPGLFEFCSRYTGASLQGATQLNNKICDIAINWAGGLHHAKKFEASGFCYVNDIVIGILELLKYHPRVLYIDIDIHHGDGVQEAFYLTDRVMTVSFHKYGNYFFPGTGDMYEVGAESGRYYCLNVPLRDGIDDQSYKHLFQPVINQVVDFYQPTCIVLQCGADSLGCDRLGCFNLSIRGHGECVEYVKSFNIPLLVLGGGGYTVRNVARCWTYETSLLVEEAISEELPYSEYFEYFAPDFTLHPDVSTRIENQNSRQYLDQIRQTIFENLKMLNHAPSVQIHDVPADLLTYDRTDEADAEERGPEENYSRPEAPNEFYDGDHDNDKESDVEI
T1 sequence (Q9Y618 whole entry, further chain, the tested form may be a part): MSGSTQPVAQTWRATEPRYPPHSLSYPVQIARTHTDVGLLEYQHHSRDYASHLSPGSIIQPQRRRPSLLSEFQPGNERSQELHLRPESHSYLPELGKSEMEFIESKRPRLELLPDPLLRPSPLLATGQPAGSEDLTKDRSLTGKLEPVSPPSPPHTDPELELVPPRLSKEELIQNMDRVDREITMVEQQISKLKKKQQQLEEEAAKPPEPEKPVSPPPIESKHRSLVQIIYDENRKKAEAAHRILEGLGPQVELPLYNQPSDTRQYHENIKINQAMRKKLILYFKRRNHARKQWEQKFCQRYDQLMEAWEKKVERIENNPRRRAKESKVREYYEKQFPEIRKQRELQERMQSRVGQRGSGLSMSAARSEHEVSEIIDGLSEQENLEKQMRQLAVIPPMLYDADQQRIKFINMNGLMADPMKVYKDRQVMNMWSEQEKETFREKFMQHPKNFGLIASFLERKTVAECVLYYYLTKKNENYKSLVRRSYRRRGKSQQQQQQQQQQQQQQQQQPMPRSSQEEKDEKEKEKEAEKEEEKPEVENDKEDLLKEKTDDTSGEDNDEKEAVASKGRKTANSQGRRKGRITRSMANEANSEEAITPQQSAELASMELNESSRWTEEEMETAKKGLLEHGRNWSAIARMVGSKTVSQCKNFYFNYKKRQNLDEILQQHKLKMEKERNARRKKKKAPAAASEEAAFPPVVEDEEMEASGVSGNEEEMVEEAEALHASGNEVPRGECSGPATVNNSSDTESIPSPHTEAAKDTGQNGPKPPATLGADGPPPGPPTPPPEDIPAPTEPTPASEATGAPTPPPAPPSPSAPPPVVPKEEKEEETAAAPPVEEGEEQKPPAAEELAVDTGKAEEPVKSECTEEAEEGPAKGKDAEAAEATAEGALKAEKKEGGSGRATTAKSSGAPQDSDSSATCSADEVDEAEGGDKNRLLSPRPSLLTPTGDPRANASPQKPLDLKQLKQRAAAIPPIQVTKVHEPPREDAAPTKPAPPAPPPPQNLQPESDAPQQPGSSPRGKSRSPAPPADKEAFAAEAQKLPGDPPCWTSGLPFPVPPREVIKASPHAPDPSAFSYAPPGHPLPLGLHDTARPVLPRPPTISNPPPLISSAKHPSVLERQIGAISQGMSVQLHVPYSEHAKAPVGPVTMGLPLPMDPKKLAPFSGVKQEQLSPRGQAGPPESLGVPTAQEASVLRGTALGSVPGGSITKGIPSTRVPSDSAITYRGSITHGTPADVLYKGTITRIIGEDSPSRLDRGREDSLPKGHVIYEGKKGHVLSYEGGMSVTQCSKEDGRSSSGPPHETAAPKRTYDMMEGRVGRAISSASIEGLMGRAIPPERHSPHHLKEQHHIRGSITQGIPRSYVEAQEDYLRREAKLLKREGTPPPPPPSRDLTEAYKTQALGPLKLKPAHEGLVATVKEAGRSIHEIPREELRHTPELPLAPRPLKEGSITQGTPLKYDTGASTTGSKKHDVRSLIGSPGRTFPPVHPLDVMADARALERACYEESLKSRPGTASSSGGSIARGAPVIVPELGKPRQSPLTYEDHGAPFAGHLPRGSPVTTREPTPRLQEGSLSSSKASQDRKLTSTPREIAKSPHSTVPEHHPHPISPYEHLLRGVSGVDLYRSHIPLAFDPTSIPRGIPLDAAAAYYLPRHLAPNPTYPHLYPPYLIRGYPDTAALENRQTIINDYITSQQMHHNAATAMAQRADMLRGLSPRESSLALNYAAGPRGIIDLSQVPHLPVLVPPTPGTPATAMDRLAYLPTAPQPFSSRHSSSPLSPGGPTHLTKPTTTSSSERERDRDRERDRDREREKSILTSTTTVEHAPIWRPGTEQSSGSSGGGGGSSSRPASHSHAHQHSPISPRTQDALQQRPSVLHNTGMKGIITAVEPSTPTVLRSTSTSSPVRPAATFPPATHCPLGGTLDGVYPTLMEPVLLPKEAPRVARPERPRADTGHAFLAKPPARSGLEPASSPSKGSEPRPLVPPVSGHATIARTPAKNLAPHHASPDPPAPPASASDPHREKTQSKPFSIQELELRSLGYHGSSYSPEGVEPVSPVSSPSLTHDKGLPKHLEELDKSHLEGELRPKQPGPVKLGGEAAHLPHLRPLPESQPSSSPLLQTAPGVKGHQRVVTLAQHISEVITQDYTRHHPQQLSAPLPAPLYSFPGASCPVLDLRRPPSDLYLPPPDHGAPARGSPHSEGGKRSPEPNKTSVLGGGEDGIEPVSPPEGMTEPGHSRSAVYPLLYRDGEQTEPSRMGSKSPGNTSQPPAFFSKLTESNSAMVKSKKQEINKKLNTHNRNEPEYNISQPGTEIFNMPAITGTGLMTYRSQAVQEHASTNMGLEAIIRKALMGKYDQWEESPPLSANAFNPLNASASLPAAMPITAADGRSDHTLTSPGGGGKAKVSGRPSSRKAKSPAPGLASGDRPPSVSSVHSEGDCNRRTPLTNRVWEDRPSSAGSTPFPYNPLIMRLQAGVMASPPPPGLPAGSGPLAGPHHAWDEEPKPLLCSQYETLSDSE
Histone deacetylase 3, sequence (O15379 whole entry): as the sequence (O15379 whole entry, the tested form may be a part) above

Turning to `Nc1cc(F)ccc1NC(=O)c1ccc(NC(=O)C2(c3ccccc3)CC2)cc1`, in assay [1], the pIC50 was 6.70. On to `Nc1ccccc1NC(=O)CCCCCCC(=O)NO`, for which the pIC50 in assay [2] is 7.68. `C[C@H](C(=O)Nc1ccc(C(=O)Nc2ccc(F)cc2N)cc1)c1ccccc1`: the pIC50 in assay [1] was 6.64 to 6.89. As to `Nc1cccc(-c2csc(NC(=O)CCCCCCC(=O)Nc3ccccc3N)n2)c1`, in assay [2], the pIC50 is 7.22. On to `CC(C)(C)OC(=O)Nc1cccc(-c2csc(NC(=O)CCCCCCC(=O)Nc3ccccc3N)n2)c1`, for which, in [2], the pIC50 was 6.80. On Histone deacetylase 3, `C=C1CN(Cc2ccc(C(=O)Nc3ccccc3N)cc2)C(=O)c2ccccc21` had a pIC50 of 7.80. In addition, the Ratio IC50 in the assay filed under Homo sapiens [3], in the assay listed under Homo sapiens [4], in the assay filed under Homo sapiens [5], in the assay listed under Homo sapiens [6], in the assay listed under Homo sapiens [7] and in the assay listed under Homo sapiens [8] was 2 throughout.

In turn, `Nc1ccccc1NC(=O)CCCCCCC(=O)Nc1ccc(-c2cn(Cc3ccccc3)nn2)cc1` showed a pIC50 in [2] of 5.82. As for `Nc1cc(F)ccc1NC(=O)c1ccc(NC(=O)C2(c3ccccc3)CC2)cn1`, the negative-log IC50 (pIC50) in [1] was 6.00. Consider `C[C@@H](C(=O)Nc1ccc(C(=O)Nc2ccc(F)cc2N)cc1)c1ccccc1`, for which, in assay [1], the pIC50 was 6.24 to 6.68. Same read-out and setting: under `CC(C)[C@@H](C(=O)Nc1ccc(C(=O)Nc2ccc(F)cc2N)cc1)c1ccccc1` stands 5.77 to 6.52. Molecule `CCOC(=O)Nc1cccc(-c2csc(NC(=O)CCCCCCC(=O)Nc3ccccc3N)n2)c1` had a pIC50 in assay [2] of 7.22. Take `Nc1ccccc1NC(=O)CCCCCCC(=O)NOCc1ccccc1`: in assay [2], the pIC50 is 6.26.

Turning to `CC(C)[C@H](C(=O)Nc1ccc(C(=O)Nc2ccc(F)cc2N)cc1)c1ccccc1`, the pIC50 in assay [1] was 7.10. On to `CC(=O)Nc1ccc(C(=O)Nc2ccc(F)cc2N)cc1`, for which the Ratio IC50 in the assay filed under Homo sapiens [3] and in the assay listed under Homo sapiens [4] was 17 throughout. In assay [2], `CC(=O)Nc1cccc(-c2csc(NC(=O)CCCCCCC(=O)Nc3ccccc3N)n2)c1` showed a pIC50 of 7.52.

Take `CC[C@H](C(=O)Nc1ccc(C(=O)Nc2ccc(F)cc2N)cc1)c1ccccc1`: in [1], the pIC50 was 6.28 to 6.96. Consider `CC[C@@H](C(=O)Nc1ccc(C(=O)Nc2ccc(F)cc2N)cc1)c1ccccc1`, for which the pIC50 in assay [1] was 6.77 to 7.22.

(Values after ChEMBL document CHEMBL4270635, “HDAC3 is a potential validated target for cancer: An overview on the benzamide-based selective HDAC3 inhibitors through comparative SAR/QSAR/QAAR approaches” (Eur J Med Chem, 2018).)
